# Results published in patent US20050256103A1, “Indole derivative having piperidine ring” (Eisai Co., Ltd., priority 2004, published 2005).
# Tests used:
# Sprague-Dawley male rats = test: Effect of controlling memory disorder induced by 8-OH-DPAT in rats (8-arm radial maze); type: in vivo, rat; details: 0.3 mg/kg, s.c., 20 min before 8-OH-DPAT 0.5 mg/kg s.c.; Mean ± S.E., N 8
# Excerpt: (1) A Sprague-Dawley male rats (130-200 g) were bred in an individual cage and used in the present test. For appetite stimulation, the body weight of the rats was reduced to approximately 80% of the original weight by fasting. […] As a maze test, an elevated 8-arm radial maze (central platform diagonal length: 34 cm, arm length: 60 cm; arm width: 12 cm) was used. In order to allow the rats to remember the positions of baits placed on the arms, the rats were left on the platform of the maze in which baits had been placed on the tips of the 4 predetermined arms. Thereafter, the rats were left on the maze for a certain period of time or until it ate all the baits. This training was carried out 1 to 3 times a day. The rats that had sufficiently learned were subjected to the following experiment. A solvent or test substance was subcutaneously administered to the rats. Twenty minutes later, 0.5 mg/kg 8-OH-DPAT was subcutaneously administered thereto. Further, 20 minutes later, the same maze test as that in the training was carried out. A reference memory error was defined as an action to enter arms on which no baits had been placed, and a working memory error was defined as an action to enter again arms on which baits had previously been placed. Thus, the actions of the rat were recorded. In addition, the time required for the rat to take all the four baits was also recorded. […] (Reference:Yoshihiro Hiraga, “Effects of scopolamine upon delayed radial-arm maze performance in rats” Folia pharmacol. Japon. 97, 351-359 (1991)) The results are shown in Table 4.
# serotonin 1A receptor = molecular target: T1, serotonin 1A receptor (Mus musculus, UniProt Q64264); test: Antagonistic effect on serotonin 1A receptor agonist (8-OH-DPAT)-induced hypothermia in mouse; type: in vivo; details: CD-1 (ICR) male mice; inhibition of hypothermia by 8-OH-DPAT 0.5 mg/kg sc; test substance 15 minutes before agonist
# T1 construct: into the rectum of CD-1 (ICR) male mice (25-45 g); from tissue; host or cells: living CD-1 (ICR) male mice (in vivo)
# T1 sequence (Q64264 1-421): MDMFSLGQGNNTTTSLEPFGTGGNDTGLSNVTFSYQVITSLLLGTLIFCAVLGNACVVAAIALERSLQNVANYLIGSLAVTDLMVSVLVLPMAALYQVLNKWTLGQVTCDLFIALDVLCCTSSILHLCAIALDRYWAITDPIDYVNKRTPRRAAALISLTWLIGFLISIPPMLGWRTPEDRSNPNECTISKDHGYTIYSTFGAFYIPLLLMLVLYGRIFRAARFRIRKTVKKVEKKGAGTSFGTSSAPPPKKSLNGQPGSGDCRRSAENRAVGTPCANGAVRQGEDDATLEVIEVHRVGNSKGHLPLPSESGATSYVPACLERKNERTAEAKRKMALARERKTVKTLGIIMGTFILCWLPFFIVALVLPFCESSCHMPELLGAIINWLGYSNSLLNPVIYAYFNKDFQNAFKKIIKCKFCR
# In short: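 CD-1 (ICR) male mice, 25-45 g; rectal temperature by thermistor probe at about 2 cm depth. Test substance given 15 min before s.c. 8-OH-DPAT […]; antagonism scored as inhibition of the induced hypothermia.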
compound,measurement,setting,value
"CNC(=O)c1ccc2ccn(C3CCN(CCc4c(OC)ccc5c4OC(C)(C)CC5=O)CC3)c2c1 [Compound 20, 1-{1-[2-(7-methoxy-2,2-dimethyl-4-oxochroman-8-yl)ethyl]piperidin-4-yl}-N-methyl-1H-indole-6-carboxamide]",Elapsed time,Sprague-Dawley male rats,52 ± 9.9 s
same,Number of reference memory errors,Sprague-Dawley male rats,1.50 ± 0.57
same,Number of working memory errors,Sprague-Dawley male rats,0.25 ± 0.16
same,ED50,serotonin 1A receptor,"0.03 mg/kg, sc"
